Data from US10301280B2 (Plexxikon Inc., priority 2012, dated 2019).

How the values were obtained:
[1] = test system: BaF3-FL KIT D816V or BaF3-FL KIT V560G/D816V cell line; test: Cell-based assays of c-Kit mutant kinase activity (cell growth, ATPlite); conditions: at least one of the c-kit cell assays of Example 26
Summary of the method: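 IC50 derived from ATP-content luminescence (ATPlite) after three-day compound exposure at 37° C., 5% CO2. Cells: BaF3 rendered growth-dependent on full-length human KIT D816V or V560G/D816V, 1×10^4 per well, RPMI plus 10% FBS; 8 points, 1:3 steps, maximum 10 μM final, 0.2% DMSO.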

c-kit mutant D816V = c-kit mutant D816V (Homo sapiens (Human), UniProt P10721, D816V/DEL694-753); test: c-Kit mutant D816V biochemical assay (AlphaScreen); conditions: c-kit D816V biochemical inhibitory activity
Chain of c-kit mutant D816V (P10721 other isoform, or with tags, fused parts or gaps D816V/del 694-753): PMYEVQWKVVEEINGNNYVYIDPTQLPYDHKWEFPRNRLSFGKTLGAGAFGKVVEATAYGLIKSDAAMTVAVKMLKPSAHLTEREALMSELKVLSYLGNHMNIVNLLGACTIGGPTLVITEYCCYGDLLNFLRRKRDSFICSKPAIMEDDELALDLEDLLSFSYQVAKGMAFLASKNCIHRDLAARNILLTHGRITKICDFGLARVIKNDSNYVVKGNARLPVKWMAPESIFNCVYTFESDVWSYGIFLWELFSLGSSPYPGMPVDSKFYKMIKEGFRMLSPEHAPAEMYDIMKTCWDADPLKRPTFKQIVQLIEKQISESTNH
Summary of the method: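 His-tagged c-Kit D816V kinase domain (551-934, Δ694-753, E. coli) phosphorylating 30 nM biotin-(E4Y)10 at 10 μM ATP in HEPES pH 7.2 with Mg/Mn, 5% DMSO, 30 min at room temperature. PY20-acceptor/streptavidin-donor AlphaScreen detection after EDTA stop. IC50 from 8-point 1:3 titration.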

Compound	IC50 [1]	IC50 (c-kit mutant D816V)
Cc1n[nH]c(C(=O)Nc2cnc3[nH]c(C4=CCC(N)CC4)cc3c2)c1C (stereo not drawn) [P-2080, N-[2-(4-aminocyclohexen-1-yl)-1H-pyrrolo[2,3-b]pyridin-5-yl]-3,4-dimethyl-1H-pyrazole-5-carboxamide]	< 10 µM	0.0001 to 1 µM
O=C(Nc1cnc2[nH]c(-c3ccccc3)cc2c1)c1[nH]ncc1Br [P-2005, 4-bromo-N-(2-phenyl-1H-pyrrolo[2,3-b]pyridin-5-yl)-1H-pyrazole-5-carboxamide]	< 10 µM	0.0001 to 1 µM
CC(=O)N1CC=C(c2cc3cc(NC(=O)c4[nH]nc(C)c4Cl)cnc3[nH]2)CC1 [P-2061, N-[2-(1-acetyl-3,6-dihydro-2H-pyridin-4-yl)-1H-pyrrolo[2,3-b]pyridin-5-yl]-4-chloro-3-methyl-1H-pyrazole-5-carboxamide]	< 10 µM	0.0001 to 1 µM
Cc1[nH]nc(C(=O)Nc2cnc3[nH]c(-c4cccc(N5CCOCC5)c4)cc3c2)c1C [P-2070, 4,5-dimethyl-N-[2-(3-morpholinophenyl)-1H-pyrrolo[2,3-b]pyridin-5-yl]-1H-pyrazole-3-carboxamide]	< 10 µM	0.0001 to 1 µM
Cc1n[nH]c(C(=O)Nc2cnc3[nH]c(-c4ccc(C(=O)NC5CC5)cc4)cc3c2)c1C [P-2148, N-[2-[4-(cyclopropylcarbamoyl)phenyl]-1H-pyrrolo[2,3-b]pyridin-5-yl]-3,4-dimethyl-1H-pyrazole-5-carboxamide]	< 10 µM	0.0001 to 1 µM
Cc1n[nH]c(C(=O)Nc2cnc3[nH]c(-c4c(C)noc4C)cc3c2)c1C [P-2065, N-[2-(3,5-dimethylisoxazol-4-yl)-1H-pyrrolo[2,3-b]pyridin-5-yl]-3,4-dimethyl-1H-pyrazole-5-carboxamide]	< 10 µM	0.0001 to 1 µM
Cc1n[nH]c(C(=O)Nc2cnc3sc(-c4ccccc4)nc3c2)c1C [P-2144, 3,4-dimethyl-N-(2-phenylthiazolo[5,4-b]pyridin-6-yl)-1H-pyrazole-5-carboxamide]	< 10 µM	1 to 10 µM
Cc1cc(C(=O)Nc2cnc3[nH]c(-n4cccn4)cc3c2)[nH]n1 [P-2116, 3-methyl-N-(2-pyrazol-1-yl-1H-pyrrolo[2,3-b]pyridin-5-yl)-1H-pyrazole-5-carboxamide]	< 10 µM	1 to 10 µM
Cc1n[nH]c(C(=O)Nc2cnc3[nH]c(-c4cccc(N5CCN(C(=O)C6CC6)CC5)c4)cc3c2)c1C [P-2118, N-[2-[3-[4-(cyclopropanecarbonyl)piperazin-1-yl]phenyl]-1H-pyrrolo[2,3-b]pyridin-5-yl]-3,4-dimethyl-1H-pyrazole-5-carboxamide]	< 10 µM	0.0001 to 1 µM
Cc1n[nH]c(C(=O)Nc2cnc3[nH]c(C4=CCN(C(=O)N5CCOCC5)C4)cc3c2)c1Cl [P-2062, 4-chloro-3-methyl-N-[2-[1-(morpholine-4-carbonyl)-2,5-dihydropyrrol-3-yl]-1H-pyrrolo[2,3-b]pyridin-5-yl]-1H-pyrazole-5-carboxamide]	< 10 µM	0.0001 to 1 µM
Cc1n[nH]c(C(=O)Nc2cnc3[nH]c(C4=CCN(C(=O)C5CC5)C4)cc3c2)c1Cl [P-2060, 4-chloro-N-[2-[1-(cyclopropanecarbonyl)-2,5-dihydropyrrol-3-yl]-1H-pyrrolo[2,3-b]pyridin-5-yl]-3-methyl-1H-pyrazole-5-carboxamide]	< 10 µM	0.0001 to 1 µM
Cc1n[nH]c(C(=O)Nc2cnc3[nH]c(-c4ccccc4)cc3c2)c1C [P-2007, 3,4-dimethyl-N-(2-phenyl-1H-pyrrolo[2,3-b]pyridin-5-yl)-1H-pyrazole-5-carboxamide]	< 10 µM	0.0001 to 1 µM
Cc1n[nH]c(C(=O)Nc2cnc3[nH]c(-c4cccc(N5CCCC5)c4)cc3c2)c1C [P-2079, 3,4-dimethyl-N-[2-(3-pyrrolidin-1-ylphenyl)-1H-pyrrolo[2,3-b]pyridin-5-yl]-1H-pyrazole-5-carboxamide]	< 10 µM	0.0001 to 1 µM
Cc1[nH]nc(C(=O)Nc2cnc3[nH]c(-c4ccnc(N5CCN(C)CC5)c4)cc3c2)c1C [P-2069, 4,5-dimethyl-N-[2-[2-(4-methylpiperazin-1-yl)-4-pyridyl]-1H-pyrrolo[2,3-b]pyridin-5-yl]-1H-pyrazole-3-carboxamide]	< 10 µM	0.0001 to 1 µM
Cc1n[nH]c(C(=O)Nc2cnc3[nH]c(C4=CCN(C(=O)C(O)CO)CC4)cc3c2)c1C (stereo not drawn) [P-2074, N-[2-[1-(2,3-dihydroxypropanoyl)-3,6-dihydro-2H-pyridin-4-yl]-1H-pyrrolo[2,3-b]pyridin-5-yl]-3,4-dimethyl-1H-pyrazole-5-carboxamide]	< 10 µM	0.0001 to 1 µM
Cc1n[nH]c(C(=O)Nc2cnc3[nH]c(-c4cccc(N(C)C)c4)cc3c2)c1C [P-2064, N-[2-[3-(dimethylamino)phenyl]-1H-pyrrolo[2,3-b]pyridin-5-yl]-3,4-dimethyl-1H-pyrazole-5-carboxamide]	< 10 µM	0.0001 to 1 µM
CNC(=O)c1ccc(-c2cc3cc(NC(=O)c4[nH]nc(C)c4C)cnc3[nH]2)cc1 [P-2067, 3,4-dimethyl-N-[2-[4-(methylcarbamoyl)phenyl]-1H-pyrrolo[2,3-b]pyridin-5-yl]-1H-pyrazole-5-carboxamide]	< 10 µM	0.0001 to 1 µM
Cc1n[nH]c(C(=O)Nc2cnc3[nH]c(C4=CCN(C(=O)CN5CCOCC5)CC4)cc3c2)c1C [P-2073, 3,4-dimethyl-N-[2-[1-(2-morpholinoacetyl)-3,6-dihydro-2H-pyridin-4-yl]-1H-pyrrolo[2,3-b]pyridin-5-yl]-1H-pyrazole-5-carboxamide]	< 10 µM	0.0001 to 1 µM
Cc1[nH]nc(C(=O)Nc2cnc3[nH]c(-c4ccc(N5CCOCC5)cc4)cc3c2)c1C [P-2059, 4,5-dimethyl-N-[2-(4-morpholinophenyl)-1H-pyrrolo[2,3-b]pyridin-5-yl]-1H-pyrazole-3-carboxamide]	< 10 µM	0.0001 to 1 µM
Cc1n[nH]c(C(=O)Nc2cnc3[nH]c(-n4cccn4)cc3c2)c1C [P-2112, 3,4-dimethyl-N-(2-pyrazol-1-yl-1H-pyrrolo[2,3-b]pyridin-5-yl)-1H-pyrazole-5-carboxamide]	< 10 µM	0.0001 to 1 µM
Cc1n[nH]c(C(=O)Nc2cnc3[nH]c(-c4ccc(C#N)c(N5CCOCC5)c4)cc3c2)c1C [P-2081, N-[2-(4-cyano-3-morpholino-phenyl)-1H-pyrrolo[2,3-b]pyridin-5-yl]-3,4-dimethyl-1H-pyrazole-5-carboxamide]	< 10 µM	0.0001 to 1 µM
